Measurements reported in patent US20100279918A1, “Chimeric Constructs Between Cancer-Homing Peptides and Cell-Penetrating Peptides Coupled to Anticancer Drugs and/or Diagnostic Agent/Agents” (Burnham Institute for Medical Research, priority 2006, published 2010).
“Also recorded” adds a separate entry of the source. Where two headings read alike, the source gives them in different places. Where a SMILES comes first, the peptide text is derived from it. Bridges are numbered along the chain shown (N, C = ends). The star is where a group is joined. Chlorambucil = O=C(CCCc1ccc(N(CCCl)CCCl)cc1)*

Key:
MCF-7 cells = assay: Toxicity study (CellTiter-Glo)
Procedure: FIG. 11. Cytotoxicity study of pVEC (SEQ ID NO:6) in MCF-7 cell line. Cells were exposed to different concentrations of pVEC solution in 150 μl of 1% FBS containing media and incubated for 2 h or 48 h at 37° C. The plate was cooled to room temperature, CellTiter-Glo® Reagent (150 μl) was added and the luminescence was measured. The percent of viable cells was compared to the non-treated cells.
FIG. 12. Cytotoxicity study of Cbl and Cbl conjugated peptides in MCF-7 cell line. Cells were exposed to different concentrations of Cbl, Cbl-pVEC (SEQ ID NO:6), Cbl-CREKA-pVEC (SEQ ID NO:22) and Cbl-PEGA-pVEC (SEQ ID NO:21) (0, 1, 5, 55, 100, 150, 200, 400 and 800 (only with Cbl) μM) solution in 150 μl of 1% FBS containing complete media and incubated for 3 h at 37° C. After that 150 μl of 10% FBS containing media was added and the cells were incubated additionally for 45 h at 37° C. (altogether 48 h). The plate was cooled to room temperature, CellTiter-Glo® Reagent (150 μl) was added and the luminescence was measured. The percent of viable cells was compared to the non-treated cells. IC50 values were calculated using GraphPad Prism 4 software.
MCF-7 and MDA-MB-231 cells (20 000 cells/well) were seeded in a 48 well plate two days before the experiment. The cells were exposed to drug in different concentration in full media containing 1% FBS for 3 h where after 10% FBS containing full media was added to achieve 5% FBS containing media and then incubated 45 or 69 h at 37° C. The plate was cooled to room temperature and CellTiter-Glo® Reagent (Promega) was added. The plate was incubated for 10 min at room temperature where after the luminescence was measured.

MDA-MB-231 cells = assay: Toxicity study (CellTiter-Glo); assay type: cell-based, human
Procedure: FIG. 13. Cytotoxicity study of Cbl and Cbl conjugated peptides in MDA-MB-231 cell line. […] (altogether 48 h). […] IC50 values were calculated using GraphPad Prism 4 software.

tumor mice = conditions: about 300 μg per mouse for 15 days; cited from earlier work
[1] = system: MDA-MB-435 orthotopic xenograft tumors; assay: Treatment of mice bearing MDA-MB-435 tumors with Cbl-peptide conjugates (tumor growth); assay type: in vivo, nude Balb/c mice; conditions: 15 μg Cbl-equivalent/mouse i.v. every other day, seven times; p<0.01 vs controls
Procedure: FIG. 26. The inhibition of MDA-MB-435 tumor growth in mice with the Cbl-CREKA-pVEC (SEQ ID NO:22) conjugates. The MDA-MB-435 orthotopic xenografted mice (8 mice/group) were systemically treated with 15 μg of Cbl equivalent of Cbl-CREKA-pVEC (SEQ ID NO:22) and of the controls.
The orthotopic xenografted breast tumors were established by injecting 1×10^6 MDA-MB-435 human breast cancer cells into the mammary fat pad of nude Balb/c mice. Treatment started when mean tumor volumes reached about 100 mm^3. Mice with size-matched tumors were randomized into five groups (eight animals per group): Cbl-CREKA-pVEC (SEQ ID NO:22), Cbl plus CREKA-pVEC, Cbl-CREKA (SEQ ID NO:1), Cbl-pVEC (SEQ ID NO:6) and PBS. Mice were treated intravenously with 15 μg of Cbl-equivalent/mouse every other day for seven times. Tumor size was measured every three days. The mice were monitored for weight loss. The animal experiments reported here were approved by the Animal Research Committee of Burnham Institute for Medical Research.

[2] = read-out: IC50 value (cytotoxicity), MCF-7, 3 h in 1% FBS media, then 45 h (altogether 48 h)
[3] = MDA-MB-231, 3 h in 1% FBS media, then 45 h (altogether 48 h), read-out: IC50 value (cytotoxicity)

Row | SMILES | IC50 (MCF-7 cells; [2]) | IC50 (MDA-MB-231 cells; [3]) | IC50 (MCF-7 cells; Homo sapiens, MCF7, read-out: IC50 value (cytotoxicity)) | IC50 (MDA-MB-231 cells; Homo sapiens, MDA-MB-231, read-out: IC50 value (cytotoxicity)) | ED15d dose (tumor mice) | inhibition of tumor growth compared with control groups [1]
1 | CC[C@H](C)[C@H](NC(=O)[C@H](CCCNC(=N)N)NC(=O)[C@H](CCCNC(=N)N)NC(=O)[C@H](CCCNC(=N)N)NC(=O)[C@H](CC(C)C)NC(=O)[C@@H](NC(=O)[C@@H](NC(=O)[C@H](CC(C)C)NC(=O)[C@H](CC(C)C)NC(=O)[C@@H]1CSSC[C@H](NC(=O)CCCc2ccc(N(CCCl)CCCl)cc2)C(=O)N2CCC[C@H]2C(=O)NCC(=O)N2CCC[C@H]2C(=O)N[C@@H](CCC(=O)O)C(=O)NCC(=O)N[C@@H](C)C(=O)NCC(=O)N1)[C@@H](C)CC)[C@@H](C)CC)C(=O)N[C@@H](CCCNC(=N)N)C(=O)N[C@@H](CCCCN)C(=O)N[C@@H](CCC(N)=O)C(=O)N[C@@H](C)C(=O)N[C@@H](Cc1c[nH]cn1)C(=O)N[C@@H](C)C(=O)N[C@@H](Cc1c[nH]cn1)C(=O)N[C@@H](CO)C(=O)N[C@@H](CCCCN)C(N)=O [Cbl-PEGA-pVEC] (Chlorambucil-CPGPEGAGCLLIILRRRIRKQAHAHSK-NH2; disulfide 1-9) | 29.9 µM | 37.4 µM | – | – | – | –
2 | O=C(O)CCCc1ccc(N(CCCl)CCCl)cc1 [Cbl, reference compound] | – | – | 128 µM | 164 µM | 15 mg/kg | –
3 | CC[C@H](C)[C@H](NC(=O)[C@H](CCCNC(=N)N)NC(=O)[C@H](CCCNC(=N)N)NC(=O)[C@H](CCCNC(=N)N)NC(=O)[C@H](CC(C)C)NC(=O)[C@@H](NC(=O)[C@@H](NC(=O)[C@H](CC(C)C)NC(=O)[C@H](CC(C)C)NC(=O)[C@H](C)NC(=O)[C@H](CCCCN)NC(=O)[C@H](CCC(=O)O)NC(=O)[C@H](CCCNC(=N)N)NC(=O)[C@H](CS)NC(=O)CCCc1ccc(N(CCCl)CCCl)cc1)[C@@H](C)CC)[C@@H](C)CC)C(=O)N[C@@H](CCCNC(=N)N)C(=O)N[C@@H](CCCCN)C(=O)N[C@@H](CCC(N)=O)C(=O)N[C@@H](C)C(=O)N[C@@H](Cc1c[nH]cn1)C(=O)N[C@@H](C)C(=O)N[C@@H](Cc1c[nH]cn1)C(=O)N[C@@H](CO)C(=O)N[C@@H](CCCCN)C(N)=O [Cbl-CREKA-pVEC] (Chlorambucil-CREKALLIILRRRIRKQAHAHSK-NH2) | 10.5 µM | 8.2 µM | – | – | – | significant decrease in tumor growth; also recorded: significant inhibition of tumor growth
